Results published in PMC11915375 (ACS Infectious Diseases, 2025).
Like-named read-outs stand apart in the source and are kept apart here.

What was measured:
[1] = system: Leishmania major amastigotes; assay: Leishmania major amastigote assay; format: cell-based; conditions: read-out: L. maj EC50
[2] = system: L. donovani; assay: L. donovani in vitro assay; format: cell-based, Leishmania donovani
[3] = system: T. brucei; assay: T. brucei proliferation inhibition assay; format: cell-based, Trypanosoma brucei; conditions: read-out: T. brucei EC50 ± S.D.
[4] = system: T. cruzi CA-I/72; assay: T. cruzi in vitro assay, C2C12 host cell; format: cell-based, Trypanosoma cruzi
[5] = Leishmania donovani, read-out: L. don EC50, B10R host cell line
[6] = Trypanosoma cruzi, C2C12, read-out: T. cruzi EC50

Compound | EC50 ([1]; Leishmania major) [µM] | EC50 [2, 5] [µM] | EC50 ([3]; Trypanosoma brucei) [µM] | EC50 [4, 6] [µM] | EC50 ([1]; amastigotes) [µM] | EC50 [3] [µM] | EC50 ([4]; read-out: T. cruzi EC50, C2C12 host cell) [µM] | EC50 ([2]; read-out: L. don EC50, B10R host cell line) [µM]
CN1CCN(c2ncc(-c3ccc4nncc(Nc5ccc(OC(F)(F)F)cc5)c4c3)cn2)CC1 [Compound 28a, 6-(2-(4-Methylpiperazin-1-yl)pyrimidin-5-yl)-N-(4-(trifluoromethoxy)phenyl)cinnolin-4-amine] | > 21 | 1.5 | 1 ± 0.12 | 4.2 | – | – | – | –
COc1ccc(Nc2cnnc3ccc(-c4cnc(N5CCN(C)CC5)nc4)cc23)cc1 [Compound 27a, N-(4-Methoxyphenyl)-6-(2-(4-methylpiperazin-1-yl)pyrimidin-5-yl)cinnolin-4-amine] | > 23 | > 10 | 1.3 ± 0.27 | 4.4 | – | – | – | –
COc1cnc(Nc2cnnc3ccc(-c4ccc(S(=O)(=O)N5CCCN(C)CC5)cc4)cc23)nc1 [Compound 35a, N-(5-Methoxypyrimidin-2-yl)-6-(4-((4-methyl-1,4-diazepan-1-yl)sulfonyl)phenyl)cinnolin-4-amine] | > 20 | – | 0.27 ± 0.008 | > 10 | – | – | – | –
CN1CCN(c2ccc(-c3ccc4nncc(Nc5ncc(Cl)cn5)c4c3)cc2)CC1 [Compound 22a, N-(5-Chloropyrimidin-2-yl)-6-(4-(4-methylpiperazin-1-yl)phenyl)cinnolin-4-amine] | > 4.6 | > 10 | 0.15 ± 0.068 | 0.31 | – | – | – | –
C[C@@H]1[C@H](O)[C@@H](C)/C=C/C=C/C=C/C=C/C=C/C=C/C=C/[C@H](O[C@@H]2O[C@H](C)[C@@H](O)[C@H](N)[C@@H]2O)C[C@@H]2O[C@](O)(C[C@@H](O)C[C@@H](O)[C@H](O)CC[C@@H](O)C[C@@H](O)CC(=O)O[C@H]1C)C[C@H](O)[C@H]2C(=O)O [Amphotericin B, reference compound] | – | 0.07 | – | – | – | – | – | –
CN1CCN(S(=O)(=O)c2ccc(-c3ccc4nncc(Nc5cnccn5)c4c3)cc2)CC1 [Compound 15a, 6-(4-((4-Methylpiperazin-1-yl)sulfonyl)phenyl)-N-(pyrazin-2-yl)cinnolin-4-amine] | 7.8 | > 10 | 1.2 ± 0.18 | > 10 | – | – | – | –
CN1CCN(c2ncc(-c3ccc4nncc(Nc5ncc(Cl)cn5)c4c3)cn2)CC1 [Compound 26a, N-(5-Chloropyrimidin-2-yl)-6-(2-(4-methylpiperazin-1-yl)pyrimidin-5-yl)cinnolin-4-amine] | > 4.6 | > 10 | – | 2.7 | – | – | – | –
7-(4-((4-Methyl-1,4-diazepan-1-yl)sulfonyl)phenyl)-N-(4-(trifluoromethoxy)phenyl)cinnolin-4-amine [Compound 20b] | – | – | – | – | > 3.6 | 0.58 ± 0.25 | > 10 | –
O=C(Cn1ccnc1[N+](=O)[O-])NCc1ccccc1 [Benznidazole, reference compound] | – | – | – | 3.77 | – | – | – | –
COc1ccc(Nc2cnnc3ccc(-c4ccc(S(=O)(=O)N5CCN(C)CC5)cc4)cc23)cc1 [Compound 18a, N-(4-Methoxyphenyl)-6-(4-((4-methylpiperazin-1-yl)sulfonyl)phenyl)cinnolin-4-amine] | > 20 | 3.4 | 0.39 ± 0.2 | 8 | – | – | – | –
CN1CCCN(S(=O)(=O)c2ccc(-c3ccc4nncc(Nc5ncc(Cl)cn5)c4c3)cc2)CC1 [Compound 33a, N-(5-Chloropyrimidin-2-yl)-6-(4-((4-methyl-1,4-diazepan-1-yl)sulfonyl)phenyl)cinnolin-4-amine] | 17 | > 10 | 0.99 ± 0.29 | 5.3 | – | – | – | –
COc1cnc(Nc2cnnc3ccc(-c4cnc(N5CCCN(C)CC5)nc4)cc23)nc1 [Compound 32a, N-(5-Methoxypyrimidin-2-yl)-6-(2-(4-methyl-1,4-diazepan-1-yl)pyrimidin-5-yl)cinnolin-4-amine] | > 23 | 8 | 2.9 ± 0.8 | > 10 | – | – | – | –
COc1ccc(Nc2cnnc3cc(-c4cnc(N5CCCN(C)CC5)nc4)ccc23)cc1 [Compound 30b, N-(4-Methoxyphenyl)-7-(2-(4-methyl-1,4-diazepan-1-yl)pyrimidin-5-yl)cinnolin-4-amine] | > 23 | – | 0.24 ± 0.088 | 0.29 | – | – | – | –
CN1CCN(S(=O)(=O)c2ccc(-c3ccc4nncc(Nc5ncccn5)c4c3)cc2)CC1 [Compound 16a, 6-(4-((4-Methylpiperazin-1-yl)sulfonyl)phenyl)-N-(pyrimidin-2-yl)cinnolin-4-amine] | > 22 | 9 | – | > 10 | – | – | – | –
COc1ccc(Nc2cnnc3cc(-c4cnc(N5CCN(C)CC5)nc4)ccc23)cc1 [Compound 27b, N-(4-Methoxyphenyl)-7-(2-(4-methylpiperazin-1-yl)pyrimidin-5-yl)cinnolin-4-amine] | > 4.7 | – | 0.36 ± 0.076 | 3.3 | – | – | – | –
COc1cnc(Nc2cnnc3ccc(-c4ccc(N5CCN(C)CC5)cc4)cc23)nc1 [Compound 25a, N-(5-Methoxypyrimidin-2-yl)-6-(4-(4-methylpiperazin-1-yl)phenyl)cinnolin-4-amine] | > 4.7 | 9.4 | 1.2 ± 0.38 | 6.1 | – | – | – | –
CN1CCCN(c2ncc(-c3ccc4nncc(Nc5ncc(Cl)cn5)c4c3)cn2)CC1 [Compound 29a, N-(5-Chloropyrimidin-2-yl)-6-(2-(4-methyl-1,4-diazepan-1-yl)pyrimidin-5-yl)cinnolin-4-amine] | > 22 | 0.22 | 1.7 ± 0.5 | 6.7 | – | – | – | –
COc1ccc(Nc2cnnc3ccc(-c4ccc(N5CCN(C)CC5)cc4)cc23)cc1 [Compound 23a, N-(4-Methoxyphenyl)-6-(4-(4-methylpiperazin-1-yl)phenyl)cinnolin-4-amine] | 4.7 | 2.3 | 0.31 ± 0.18 | 1.7 | – | – | – | –
CN1CCCN(c2ncc(-c3ccc4nncc(Nc5ccc(OC(F)(F)F)cc5)c4c3)cn2)CC1 [Compound 31a, 6-(2-(4-Methyl-1,4-diazepan-1-yl)pyrimidin-5-yl)-N-(4-(trifluoromethoxy)phenyl)cinnolin-4-amine] | > 20 | > 10 | 0.25 ± 0.11 | > 10 | – | – | – | –
COc1ccc(Nc2cnnc3ccc(-c4ccc(S(=O)(=O)N5CCN(C)CC5)cc4)cc23)nc1 [Compound 19a, N-(5-Methoxypyridin-2-yl)-6-(4-((4-methylpiperazin-1-yl)sulfonyl)phenyl)cinnolin-4-amine] | > 20 | 4.9 | 1.9 ± 0.073 | 3.8 | – | – | – | –
CN1CCCN(S(=O)(=O)c2ccc(-c3ccc4nncc(Nc5ccc(OC(F)(F)F)cc5)c4c3)cc2)CC1 [Compound 34a, 6-(4-((4-Methyl-1,4-diazepan-1-yl)sulfonyl)phenyl)-N-(4-(trifluoromethoxy)phenyl)cinnolin-4-amine] | > 18 | 1.8 | 0.65 ± 0.021 | > 10 | – | – | – | –
CN1CCN(S(=O)(=O)c2ccc(-c3ccc4nncc(Nc5ccc(OC(F)(F)F)cc5)c4c3)cc2)CC1 [Compound 20a, 6-(4-((4-Methylpiperazin-1-yl)sulfonyl)phenyl)-N-(4-(trifluoromethoxy)phenyl)cinnolin-4-amine] | 4.8 | 0.11 | 0.35 ± 0.26 | 6.8 | – | – | – | –
Cc1ccc(Nc2cnnc3ccc(-c4ccc(S(=O)(=O)N5CCN(C)CC5)cc4)cc23)cn1 [Compound 13a, 6-(4-((4-Methylpiperazin-1-yl)sulfonyl)phenyl)-N-(6-methylpyridin-3-yl)cinnolin-4-amine] | > 21 | > 10 | 1.3 ± 0.027 | 8.2 | – | – | – | –
COc1ccc(Nc2cnnc3cc(-c4ccc(S(=O)(=O)N5CCN(C)CC5)cc4)ccc23)nc1 [Compound 19b, N-(5-Methoxypyridin-2-yl)-7-(4-((4-methylpiperazin-1-yl)sulfonyl)phenyl)cinnolin-4-amine] | > 20 | > 10 | – | > 10 | – | – | – | –
COc1cnc(Nc2cnnc3ccc(-c4ccc(S(=O)(=O)N5CCN(C)CC5)cc4)cc23)nc1 [Compound 21a, N-(5-Methoxypyrimidin-2-yl)-6-(4-((4-methylpiperazin-1-yl)sulfonyl)phenyl)cinnolin-4-amine] | > 4.1 | 5.77 | 6.6 ± 1.7 | 1.3 | – | – | – | –
CN1CCN(S(=O)(=O)c2ccc(-c3ccc4nncc(Nc5ncc(Cl)cn5)c4c3)cc2)CC1 [Compound 14a, N-(5-Chloropyrimidin-2-yl)-6-(4-((4-methylpiperazin-1-yl)sulfonyl)phenyl)cinnolin-4-amine] | 0.005 | – | 0.82 ± 0.19 | 4.1 | – | – | – | 0.069
COc1ccc(Nc2cnnc3ccc(-c4cnc(N5CCCN(C)CC5)nc4)cc23)cc1 [Compound 30a, N-(4-Methoxyphenyl)-6-(2-(4-methyl-1,4-diazepan-1-yl)pyrimidin-5-yl)cinnolin-4-amine] | > 23 | > 10 | 2.1 ± 0.64 | 5.1 | – | – | – | –
COc1ccc(Nc2cnnc3ccc(-c4ccc(S(=O)(=O)N5CCN(C)CC5)cc4)cc23)cc1Cl [Compound 17a, N-(3-Chloro-4-methoxyphenyl)-6-(4-((4-methylpiperazin-1-yl)sulfonyl)phenyl)cinnolin-4-amine] | > 19 | 9.3 | 1.6 ± 0.36 | > 10 | – | – | – | –
COc1ccc(Nc2cnnc3cc(-c4ccc(N5CCN(C)CC5)cc4)ccc23)cc1 [Compound 23b, N-(4-Methoxyphenyl)-7-(4-(4-methylpiperazin-1-yl)phenyl)cinnolin-4-amine] | > 24 | – | 0.078 ± 0.031 | 1.1 | – | – | – | –
COc1ccc(Nc2cnnc3cc(-c4ccc(S(=O)(=O)N5CCN(C)CC5)cc4)ccc23)cc1 [Compound 18b, N-(4-Methoxyphenyl)-7-(4-((4-methylpiperazin-1-yl)sulfonyl)phenyl)cinnolin-4-amine] | > 20 | – | 12 ± 0.63 | 3.2 | – | – | – | –
